# Values joined by “and” are separate entries in the source; they are usually repeats but may differ in a detail not shown here. Equal entries are not always repeated.
# Tests used:
# Experiment in all cases: radiometric filter-binding kinase assay, Kinase HotSpot
# Conditions in all cases: compound 0.5 µM; ATP 10 µM
# [1] = target: SGK2 (human) (UniProt Q9HBY8)
# [2] = target: DAPK3 (human) (UniProt O43293)
# [3] = target: EPHA5 (human) (UniProt P54756)
# [4] = target: BTK (human) (UniProt Q06187)
# [5] = target: TYRO3 (human) (UniProt Q06418)
# [6] = target: CSK (human) (UniProt P41240)
# [7] = target: STK10 (human) (UniProt O94804)
# [8] = target: BMX (human) (UniProt P51813)
# [9] = target: RPS6KA2 KD1 KD2 (human) (UniProt Q15349)
# [10] = target: MLTK (human) (UniProt Q9NYL2)
# [11] = target: FGFR4 (human) (UniProt P22455)
# [12] = target: ULK3 (human) (UniProt Q6PHR2)
# [13] = target: MYLK (human) (UniProt Q15746)
# [14] = target: IRAK4 (human) (UniProt Q9NWZ3)
# [15] = target: FER (human) (UniProt P16591)
# [16] = target: CDK6 CCND3 (human) (UniProt P30281+Q00534)
# [17] = target: PRKG1 (human) (UniProt Q13976)
# [18] = target: HIPK1 (human) (UniProt Q86Z02)
# [19] = target: PLK1 (human) (UniProt P53350)
# [20] = target: AURKA (human) (UniProt O14965)
# [21] = target: DMPK (human) (UniProt Q09013)
# [22] = target: DYRK2 (human) (UniProt Q92630)
# [23] = target: NEK3 (human) (UniProt P51956)
# [24] = target: GRK4 (human) (UniProt P32298)
# [25] = target: CHEK2 (human) (UniProt O96017)
# [26] = target: PKN1 (human) (UniProt Q16512)
# [27] = target: MARK2 (human) (UniProt Q7KZI7)
# [28] = target: MST1R (human) (UniProt Q04912)
# [29] = target: GRK7 (human) (UniProt Q8WTQ7)
# [30] = target: TLK2 (human) (UniProt Q86UE8)
# [31] = target: MAPK12 (human) (UniProt P53778)
# [32] = target: GSK3B (human) (UniProt P49841)
# [33] = target: MAP3K8 (human) (UniProt P41279)
# [34] = target: LYN (human) (UniProt P07948)
# [35] = target: FGFR2 (human) (UniProt P21802)
# [36] = target: CSNK2A1 (human) (UniProt P68400)
# [37] = target: SRC (human) (UniProt P12931)
# [38] = target: JAK3 JH1 JH2 (human) (UniProt P52333)
# [39] = target: EPHB4 (human) (UniProt P54760)
# [40] = target: PNCK (human) (UniProt Q6P2M8)
# [41] = target: RPS6KA4 KD2 (human) (UniProt O75676)
# [42] = target: STK3 (human) (UniProt Q13188)
# Sequence of PRKG1 (human) (Q13976 whole entry, looked up): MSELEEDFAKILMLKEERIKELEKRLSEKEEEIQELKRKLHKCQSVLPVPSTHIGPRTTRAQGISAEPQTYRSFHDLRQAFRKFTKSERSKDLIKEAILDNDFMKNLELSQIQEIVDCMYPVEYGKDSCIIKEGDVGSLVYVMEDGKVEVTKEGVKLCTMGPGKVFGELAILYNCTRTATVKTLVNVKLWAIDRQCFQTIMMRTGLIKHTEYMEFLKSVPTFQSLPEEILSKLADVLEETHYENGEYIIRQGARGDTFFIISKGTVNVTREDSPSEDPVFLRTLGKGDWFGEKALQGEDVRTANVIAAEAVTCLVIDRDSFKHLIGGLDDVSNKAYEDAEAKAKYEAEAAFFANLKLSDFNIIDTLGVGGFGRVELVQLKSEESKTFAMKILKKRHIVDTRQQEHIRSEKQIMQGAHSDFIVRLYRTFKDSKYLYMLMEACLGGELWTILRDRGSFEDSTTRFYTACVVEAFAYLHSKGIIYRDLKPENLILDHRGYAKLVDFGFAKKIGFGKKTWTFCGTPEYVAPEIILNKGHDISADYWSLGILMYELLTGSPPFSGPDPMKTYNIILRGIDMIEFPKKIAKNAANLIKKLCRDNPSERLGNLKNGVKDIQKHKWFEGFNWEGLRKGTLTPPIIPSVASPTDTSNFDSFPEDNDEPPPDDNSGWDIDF
# Sequence of LYN (human) (P07948 whole entry, looked up): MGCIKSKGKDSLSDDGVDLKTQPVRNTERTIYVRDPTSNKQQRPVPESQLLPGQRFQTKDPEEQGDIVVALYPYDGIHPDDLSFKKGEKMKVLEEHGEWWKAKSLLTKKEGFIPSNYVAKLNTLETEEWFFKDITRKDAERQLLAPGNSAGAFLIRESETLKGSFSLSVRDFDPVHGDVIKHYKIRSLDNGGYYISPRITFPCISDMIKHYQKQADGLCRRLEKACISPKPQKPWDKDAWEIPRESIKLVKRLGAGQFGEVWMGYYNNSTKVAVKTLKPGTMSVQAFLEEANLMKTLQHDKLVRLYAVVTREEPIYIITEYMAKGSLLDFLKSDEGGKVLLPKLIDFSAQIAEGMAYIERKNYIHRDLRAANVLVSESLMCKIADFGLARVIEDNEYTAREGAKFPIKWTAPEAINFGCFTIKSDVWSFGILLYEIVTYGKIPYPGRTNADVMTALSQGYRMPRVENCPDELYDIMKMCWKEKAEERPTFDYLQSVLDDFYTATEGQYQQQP
# Sequence of NEK3 (human) (P51956 whole entry, looked up): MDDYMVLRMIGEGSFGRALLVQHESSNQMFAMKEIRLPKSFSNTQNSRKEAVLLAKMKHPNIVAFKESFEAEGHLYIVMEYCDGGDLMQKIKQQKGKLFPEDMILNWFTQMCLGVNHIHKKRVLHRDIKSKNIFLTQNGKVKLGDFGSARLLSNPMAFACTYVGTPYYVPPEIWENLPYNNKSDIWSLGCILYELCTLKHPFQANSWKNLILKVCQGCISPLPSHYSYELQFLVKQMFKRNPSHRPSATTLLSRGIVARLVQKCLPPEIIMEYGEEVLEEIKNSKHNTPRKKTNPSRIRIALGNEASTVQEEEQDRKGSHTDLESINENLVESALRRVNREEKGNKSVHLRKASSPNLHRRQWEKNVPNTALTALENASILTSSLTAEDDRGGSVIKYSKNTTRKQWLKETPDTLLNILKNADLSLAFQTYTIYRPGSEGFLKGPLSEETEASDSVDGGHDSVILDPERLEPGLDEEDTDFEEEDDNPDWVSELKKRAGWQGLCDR
# Sequence of DMPK (human) (Q09013 whole entry, looked up): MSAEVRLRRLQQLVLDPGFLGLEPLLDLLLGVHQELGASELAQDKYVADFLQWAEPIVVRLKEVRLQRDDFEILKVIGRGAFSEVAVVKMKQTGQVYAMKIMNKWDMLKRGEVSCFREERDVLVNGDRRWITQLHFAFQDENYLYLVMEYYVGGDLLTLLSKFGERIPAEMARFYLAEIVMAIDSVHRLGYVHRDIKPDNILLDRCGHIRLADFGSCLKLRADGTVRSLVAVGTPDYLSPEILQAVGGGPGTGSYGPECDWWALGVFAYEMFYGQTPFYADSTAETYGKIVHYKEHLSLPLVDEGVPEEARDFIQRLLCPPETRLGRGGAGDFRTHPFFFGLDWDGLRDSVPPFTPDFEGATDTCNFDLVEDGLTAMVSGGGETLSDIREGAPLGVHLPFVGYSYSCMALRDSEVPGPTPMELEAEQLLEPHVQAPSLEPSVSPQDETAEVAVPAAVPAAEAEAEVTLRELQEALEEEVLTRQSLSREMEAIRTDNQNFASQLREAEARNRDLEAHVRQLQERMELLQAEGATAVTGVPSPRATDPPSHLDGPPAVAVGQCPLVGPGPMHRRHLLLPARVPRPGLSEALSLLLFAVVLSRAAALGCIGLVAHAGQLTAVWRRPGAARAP
# Sequence of GSK3B (human) (P49841 whole entry, looked up): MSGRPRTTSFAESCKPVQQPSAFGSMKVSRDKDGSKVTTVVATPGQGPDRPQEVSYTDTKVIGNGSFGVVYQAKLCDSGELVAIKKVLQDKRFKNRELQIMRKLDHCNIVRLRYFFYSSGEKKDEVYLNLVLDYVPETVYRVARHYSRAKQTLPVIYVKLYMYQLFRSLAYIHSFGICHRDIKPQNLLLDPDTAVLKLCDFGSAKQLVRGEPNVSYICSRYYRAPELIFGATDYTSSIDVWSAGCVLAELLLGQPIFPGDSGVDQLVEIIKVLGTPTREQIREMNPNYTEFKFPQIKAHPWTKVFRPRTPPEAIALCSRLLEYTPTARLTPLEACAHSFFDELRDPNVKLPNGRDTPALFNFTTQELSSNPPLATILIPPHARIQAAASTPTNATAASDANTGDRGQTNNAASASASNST
# Sequence of FER (human) (P16591 whole entry, looked up): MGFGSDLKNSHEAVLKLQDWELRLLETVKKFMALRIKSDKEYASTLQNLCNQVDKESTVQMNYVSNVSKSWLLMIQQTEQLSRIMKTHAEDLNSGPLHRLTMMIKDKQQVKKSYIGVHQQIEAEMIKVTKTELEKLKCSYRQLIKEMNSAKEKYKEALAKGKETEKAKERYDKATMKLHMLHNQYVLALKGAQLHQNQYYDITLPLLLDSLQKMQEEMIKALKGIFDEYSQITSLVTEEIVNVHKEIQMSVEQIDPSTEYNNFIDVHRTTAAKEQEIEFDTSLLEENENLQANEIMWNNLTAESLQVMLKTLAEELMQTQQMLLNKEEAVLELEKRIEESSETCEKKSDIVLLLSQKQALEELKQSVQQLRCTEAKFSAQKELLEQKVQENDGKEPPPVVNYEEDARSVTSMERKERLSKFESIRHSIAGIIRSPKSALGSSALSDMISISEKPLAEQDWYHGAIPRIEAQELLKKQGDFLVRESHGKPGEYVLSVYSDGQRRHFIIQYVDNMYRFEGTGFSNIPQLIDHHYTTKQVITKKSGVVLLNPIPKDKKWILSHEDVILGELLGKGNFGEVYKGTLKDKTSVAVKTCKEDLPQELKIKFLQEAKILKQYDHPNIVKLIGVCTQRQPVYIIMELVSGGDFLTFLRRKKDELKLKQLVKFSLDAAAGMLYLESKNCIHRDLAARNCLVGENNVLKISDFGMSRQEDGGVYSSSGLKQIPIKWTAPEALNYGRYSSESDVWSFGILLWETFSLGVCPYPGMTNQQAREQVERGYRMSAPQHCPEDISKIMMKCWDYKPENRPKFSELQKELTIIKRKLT
# Sequence of MARK2 (human) (Q7KZI7 whole entry, looked up): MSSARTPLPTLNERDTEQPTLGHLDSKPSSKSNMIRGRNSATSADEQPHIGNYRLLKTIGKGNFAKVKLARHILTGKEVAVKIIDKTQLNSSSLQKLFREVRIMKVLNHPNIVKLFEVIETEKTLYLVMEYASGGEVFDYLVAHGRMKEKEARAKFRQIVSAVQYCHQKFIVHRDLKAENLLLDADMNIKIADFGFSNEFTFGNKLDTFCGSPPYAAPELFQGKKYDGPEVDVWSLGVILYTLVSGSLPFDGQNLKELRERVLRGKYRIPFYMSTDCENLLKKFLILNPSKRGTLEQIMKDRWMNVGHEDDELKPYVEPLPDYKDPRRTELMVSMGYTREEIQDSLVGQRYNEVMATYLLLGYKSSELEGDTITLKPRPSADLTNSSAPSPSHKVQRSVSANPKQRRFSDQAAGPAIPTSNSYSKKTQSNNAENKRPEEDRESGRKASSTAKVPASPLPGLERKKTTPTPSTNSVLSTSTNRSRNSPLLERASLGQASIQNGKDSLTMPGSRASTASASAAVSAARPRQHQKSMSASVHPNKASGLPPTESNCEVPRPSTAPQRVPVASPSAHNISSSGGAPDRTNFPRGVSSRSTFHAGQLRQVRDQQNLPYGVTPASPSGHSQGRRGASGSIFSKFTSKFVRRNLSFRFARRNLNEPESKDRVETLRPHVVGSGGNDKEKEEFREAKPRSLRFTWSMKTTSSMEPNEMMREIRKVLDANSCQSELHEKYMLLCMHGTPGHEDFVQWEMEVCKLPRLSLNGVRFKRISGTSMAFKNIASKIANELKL
# Sequence of PNCK (human) (Q6P2M8 whole entry, looked up): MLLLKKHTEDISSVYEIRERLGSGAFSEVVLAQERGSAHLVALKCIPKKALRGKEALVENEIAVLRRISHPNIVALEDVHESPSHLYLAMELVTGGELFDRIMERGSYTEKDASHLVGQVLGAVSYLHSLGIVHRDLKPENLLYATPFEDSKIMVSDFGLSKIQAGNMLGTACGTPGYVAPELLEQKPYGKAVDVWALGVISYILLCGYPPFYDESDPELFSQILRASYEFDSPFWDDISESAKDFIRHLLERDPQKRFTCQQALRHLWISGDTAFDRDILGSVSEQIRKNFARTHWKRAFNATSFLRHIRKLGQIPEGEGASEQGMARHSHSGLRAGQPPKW
compound,measurement,setting,value
CCN(CC)CCNC(=O)c1c(C)[nH]c(/C=C2\C(=O)Nc3ccc(Cl)cc32)c1C,residual activity,[1],62.8%
same,residual activity,[2],54.3%
same,residual activity,[3],90.4%
same,residual activity,[4],58.3%
same,residual activity,[5],23.2%
same,residual activity,[6],86.3%
same,residual activity,[7],7.11%
same,residual activity,[8],99.3%
same,residual activity,[9],10%
same,residual activity,[10],95.8%
same,residual activity,[11],70.5%
same,residual activity,[12],21.6%
same,residual activity,[13],17.6%
same,residual activity,[14],22.7%
same,residual activity,[15],17.7%
same,residual activity,[16],41.6%
same,residual activity,[17],64.2% and 76.4%
same,residual activity,[18],96.9%
same,residual activity,[19],105%
same,residual activity,[20],80.3%
same,residual activity,[21],102%
same,residual activity,[22],82.7%
same,residual activity,[23],94%
same,residual activity,[24],80.8%
same,residual activity,[25],6.42%
same,residual activity,[26],36.5%
same,residual activity,[27],9.74%
same,residual activity,[28],96.7%
same,residual activity,[29],62.2%
same,residual activity,[30],79.6%
same,residual activity,[31],96.6%
same,residual activity,[32],93.1%
same,residual activity,[33],113%
same,residual activity,[34],21.9% and 6.34%
same,residual activity,[35],29.3%
same,residual activity,[36],91.4%
same,residual activity,[37],26%
same,residual activity,[38],39.3%
same,residual activity,[39],76.9%
same,residual activity,[40],70.5%
same,residual activity,[41],59%
same,residual activity,[42],16.9%

# Source: the kinase profiling compilation of Christmann-Franck et al. (2016)
